Measurements from patent US20090163546A1, “DIACYLGLYCEROL ACYLTRANSFERASE INHIBITORS” (priority 2007, published 2009).

tested on: DGAT; experiment: DGAT Phospholipid FlashPlate Assay; type: biochemical; conditions: DGAT pellet, DAG-coated PL-FlashPlate, 14C-Pal-CoA, 37° C. for 1 hour; read-out: Activity in DGAT Phospholipid FlashPlate Assay (A = IC50 < 0.10 μM, B = IC50 ≧ 0.10 μM)
Protocol: Materials for the assay were: PL-FlashPlate: Phospholipid FlashPlates from PerkinElmer, catalog number SMP108; DAG (1,2-Dioleoyl-sn-glycerol) 10 mM suspended in water containing 0.1% Triton X-100; ^14C-Pal-CoA (palmitoyl coenzyme A, [palmitoyl-1-^14C]) from PerkinElmer, catalog number NEC-555 with a specific activity of 55 mCi/mmol; and DGAT pellet, with a protein concentration of 9.85 mg/ml.
Aqueous buffers were prepared or purchased as follows: The coating buffer (CB) was purchased from PerkinElmer, catalog number SMP900A; the reaction buffer (RB) was 50 mM Tris-HCl, pH 7.5, 100 mM NaCl, 0.01 % BSA in water; the washing buffer (WB) is 50 mM Tris-HCl, pH 7.5, 100 mM NaCl, 0.05 % deoxycholic acid sodium salt in water; the dilution buffer (DB) was 50 mM Tris-HCl, pH 7.5, 100 mM NaCl, 1 mM EDTA, 0.2% Triton X-100 in water.
1,2-Dioleoyl-sn-glycerol (DAG, 10 mmoles) was diluted to 500 μM with coating buffer (CB). The diluted DAG solution was then added to 384-well PL-FlashPlates at 60 μl per well, and incubated at room temperature for 2 days. The coated plates were then washed twice with washing buffer (WB) before use. Test compounds were serial diluted to 2000, 666.7, 222.2, 74.1, 24.7, 8.2, 2.7 and 0.9 μM in 100% DMSO. Diluted compound were further diluted 10 fold with reaction buffer (RB). ^14C-Pal-CoA was diluted to 8.3 μM with RB. The DGAT pellet was diluted to 0.13 mg protein/ml with dilution buffer (DB) immediately before it was added to the PL-FlashPlates to start the reaction. 20 μl of the RB-diluted compounds (or 10% DMSO in RB for Total and Blank), 15 μl of RB diluted 14C-Pal-CoA and 15 μl of DB diluted DGAT pellet (DB without DGAT for Blanks) were transferred to each well of the PL-FlashPlates. The reaction mixtures were incubated at 37° C. for 1 hour. The reactions were stopped by washing 3 times with WB. Plates were sealed with Top-seal and read on a Topcount instrument.
Calculation of IC50: The IC50 values for each compound were generated using an Excel template. The Topcount rpm readings of Total and Blank were used as 0% and 100% inhibition. The percent inhibition values of reactions in the presence of compounds were calculated, and plotted against compound concentrations. All data were fitted into a Dose Response One Site model (4 parameter logistic model) as the following:
(A+((B−A)/(1+((x/C)̂D)))),
with A and B as the bottom and top of the curve ([…]), respectively, and C as IC50 and D as Hill Coefficient of the compound.

Q: How did the IC50 turn out when `CCCn1[nH]c(=O)c2cc(NC(=O)Nc3ccccc3)ccc21` [Example 14, 1-(3-Oxo-1-propyl-2,3-dihydro-1H-indazol-5-yl)-3-phenyl-urea] was run?
A: ≥ 100 nM

Q: For `COc1ccc(Cl)cc1NC(=O)Nc1ccc2c(c1)c(=O)[nH]n2Cc1ccccc1` [Example 1, 1-(1-Benzyl-3-oxo-2,3-dihydro-1H-indazol-5-yl)-3-(5-chloro-2-methoxy-phenyl)-urea], which IC50 is on record?
A: ≥ 100 nM

Q: For `CCOc1ccccc1NC(=O)Nc1ccc2c(c1)c(=O)[nH]n2Cc1ccccc1` [Example 2, 1-(1-Benzyl-3-oxo-2,3-dihydro-1H-indazol-5-yl)-3-(2-ethoxy-phenyl)-urea], which IC50 is on record?
A: ≥ 100 nM

Q: How did the IC50 turn out when `CCCn1[nH]c(=O)c2cc(NC(=O)Nc3ccc(Cl)c(Cl)c3)ccc21` [Example 9, 1-(3,4-Dichloro-phenyl)-3-(3-oxo-1-propyl-2,3-dihydro-1H-indazol-5-yl)-urea] was run?
A: < 100 nM

Q: Which IC50 does the source give for `CCCn1[nH]c(=O)c2cc(NC(=O)Nc3ccccc3CC)ccc21` [Example 10, 1-(2-Ethyl-phenyl)-3-(3-oxo-1-propyl-2,3-dihydro-1H-inidazol-5-yl)-urea] here?
A: < 100 nM

Q: Which IC50 does the source give for `CCCn1[nH]c(=O)c2cc(NC(=O)Nc3ccccc3F)ccc21` [Example 22, 1-(2-Fluoro-phenyl)-3-(3-oxo-1-propyl-2,3-dihydro-1H-indazol-5-yl)-urea] here?
A: ≥ 100 nM

Q: `CCCn1[nH]c(=O)c2cc(NC(=O)Nc3cccc(C(F)(F)F)c3)ccc21` [Example 32, 1-(3-Oxo-1-propyl-2,3-dihydro-1H-indazol-5-yl)-3-(3-trifluoromethyl-phenyl)-urea] was tested. Which IC50 did it give?
A: ≥ 100 nM

Q: How did the IC50 turn out when `CCCn1[nH]c(=O)c2cc(NC(=O)Nc3ccccc3C(C)CC)ccc21` (stereo not shown) [Example 29, 1-(2-sec-Butyl-phenyl)-3-(3-oxo-1-propyl-2,3-dihydro-1H-indazol-5-yl)-urea] was run?
A: ≥ 100 nM

Q: How did the IC50 turn out when `O=C(Nc1cccc(C(F)(F)F)c1)Nc1ccc2c(c1)c(=O)[nH]n2Cc1ccccc1` [Example 34, 1-(1-Benzyl-3-oxo-2,3-dihydro-1H-indazol-5-yl)-3-(3-trifluoromethyl-phenyl)-urea] was run?
A: ≥ 100 nM

Q: Which IC50 does the source give for `CCCn1[nH]c(=O)c2cc(NC(=O)Nc3ccc(Cl)cc3Cl)ccc21` [Example 12, 1-(2,4-Dichloro-phenyl)-3-(3-oxo-1-propyl-2,3-dihydro-1H-indazol-5-yl)-urea] here?
A: ≥ 100 nM

Q: How did the IC50 turn out when `CC(C)Oc1cccc(NC(=O)Nc2ccc3c(c2)c(=O)[nH]n3Cc2ccccc2)c1` [Example 33, 1-(1-Benzyl-3-oxo-2,3-dihydro-1H-indazol-5-yl)-3-(3-isopropoxy-phenyl)-urea] was run?
A: ≥ 100 nM

Q: With `CCCn1[nH]c(=O)c2cc(NC(=O)Nc3cccc4cccnc34)ccc21` [Example 27, 1-(3-Oxo-1-propyl-2,3-dihydro-1H-indazol-5-yl)-3-quinolin-8-yl-urea] as the compound, how does the IC50 read?
A: < 100 nM

Q: Which IC50 does the source give for `CCCn1[nH]c(=O)c2cc(NC(=O)Nc3cccc(Cl)c3)ccc21` [Example 15, 1-(3-Chloro-phenyl)-3-(3-oxo-1-propyl-2,3-dihydro-1H-indazol-5-yl)-urea] here?
A: ≥ 100 nM

Q: For `CCCn1[nH]c(=O)c2cc(NC(=O)Nc3cc(Cl)ccc3Cl)ccc21` [Example 11, 1-(2,5-Dichloro-phenyl)-3-(3-oxo-1-propyl-2,3-dihydro-1H-indazol-5-yl)-urea], which IC50 is on record?
A: ≥ 100 nM

Q: `CCCn1[nH]c(=O)c2cc(NC(=O)Nc3cccc(C)c3)ccc21` [Example 16, 1-(3-Oxo-1-propyl-2,3-dihydro-1H-indazol-5-yl)-3-m-tolyl-urea] was tested. Which IC50 did it give?
A: ≥ 100 nM

Q: `CCCn1[nH]c(=O)c2cc(NC(=O)Nc3ccccc3OC)ccc21` [Example 20, 1-(2-Methoxy-phenyl)-3-(3-oxo-1-propyl-2,3-dihydro-1H-indazol-5-yl)-urea] was tested. Which IC50 did it give?
A: ≥ 100 nM

Q: `CCCn1[nH]c(=O)c2cc(NC(=O)Nc3cccc(Br)c3)ccc21` [Example 19, 1-(3-Bromo-phenyl)-3-(3-oxo-1-propyl-2,3-dihydro-1H-indazol-5-yl)-urea] was tested. Which IC50 did it give?
A: ≥ 100 nM

Q: For `CCCn1[nH]c(=O)c2cc(NC(=O)Nc3cc(C)ccc3OC)ccc21` [Example 6, 1-(2-Methoxy-5-methyl-phenyl)-3-(3-oxo-1-propyl-2,3-dihydro-1H-indazol-5-yl)-urea], which IC50 is on record?
A: ≥ 100 nM

Q: With `COc1ccccc1NC(=O)Nc1ccc2c(c1)c(=O)[nH]n2Cc1ccccc1` [Example 3, 1-(1-Benzyl-3-oxo-2,3-dihydro-1H-indazol-5-yl)-3-(2-methoxy-phenyl)-urea] as the compound, how does the IC50 read?
A: ≥ 100 nM

Q: With `CCCn1[nH]c(=O)c2cc(NC(=O)Nc3ccccc3N3CCCCC3)ccc21` [Example 28, 1-(3-Oxo-1-propyl-2,3-dihydro-1H-indazol-5-yl)-3-(2-piperidin-1-yl-phenyl)-urea] as the compound, how does the IC50 read?
A: ≥ 100 nM

Q: How did the IC50 turn out when `CCCn1[nH]c(=O)c2cc(NC(=O)Nc3ccc(C(F)(F)F)cc3)ccc21` [Example 13, 1-(3-Oxo-1-propyl-2,3-dihydro-1H-indazol-5-yl)-3-(4-trifluoromethyl-phenyl)-urea] was run?
A: ≥ 100 nM

Q: How did the IC50 turn out when `O=C(Nc1ccc2c(c1)c(=O)[nH]n2Cc1ccccc1)Nc1ccccc1N1CCCCC1` [Example 30, 1-(1-Benzyl-3-oxo-2,3-dihydro-1H-indazol-5-yl)-3-(2-piperidin-1-yl-phenyl)-urea] was run?
A: ≥ 100 nM

Q: With `COc1c(Cl)cccc1NC(=O)Nc1ccc2c(c1)c(=O)[nH]n2Cc1ccccc1` [Example 23, 1-(1-Benzyl-3-oxo-2,3-dihydro-1H-indazol-5-yl)-3-(3-chloro-2-methoxy-phenyl)-urea] as the compound, how does the IC50 read?
A: ≥ 100 nM

Q: Which IC50 does the source give for `CCCn1[nH]c(=O)c2cc(NC(=O)Nc3ccccc3Cl)ccc21` [Example 21, 1-(2-Chloro-phenyl)-3-(3-oxo-1-propyl-2,3-dihydro-1H-indazol-5-yl)-urea] here?
A: ≥ 100 nM

Q: Which IC50 does the source give for `CCCCc1ccc(NC(=O)Nc2ccc3c(c2)c(=O)[nH]n3CCC)cc1` [Example 5, 1-(4-Butyl-phenyl)-3-(3-oxo-1-propyl-2,3-dihydro-1H-indazol-5-yl)-urea] here?
A: ≥ 100 nM

Q: How did the IC50 turn out when `CCc1ccccc1NC(=O)Nc1ccc2c(c1)c(=O)[nH]n2CCOC` [Example 26, 1-(2-ethyl-phenyl)-3-[1-(2-methoxy-ethyl)-3-oxo-2,3-dihydro-1H-indazol-5-yl]-urea] was run?
A: ≥ 100 nM

Q: Which IC50 does the source give for `CCOC(=O)Cn1[nH]c(=O)c2cc(NC(=O)Nc3ccccc3CC)ccc21` [Example 24, {5-[3-(2-ethyl-phenyl)-ureido]-3-oxo-2,3-dihydro-indazol-1-yl}-acetic acid ethyl ester] here?
A: ≥ 100 nM

Q: How did the IC50 turn out when `CCCn1[nH]c(=O)c2cc(NC(=O)Nc3cccc(F)c3)ccc21` [Example 17, 1-(3-Fluoro-phenyl)-3-(3-oxo-1-propyl-2,3-dihydro-1H-indazol-5-yl)-urea] was run?
A: ≥ 100 nM

Q: How did the IC50 turn out when `CCc1ccccc1NC(=O)Nc1ccc2c(c1)c(=O)[nH]n2CCOCCOC` [Example 25, 1-(2-ethyl-phenyl)-3-{1-[2-(2-methoxy-ethoxy)-ethyl]-3-oxo-2,3-dihydro-1H-indazol-5-yl}-urea] was run?
A: ≥ 100 nM

Q: For `C#Cc1cccc(NC(=O)Nc2ccc3c(c2)c(=O)[nH]n3CCC)c1` [Example 31, 1-(3-Ethynyl-phenyl)-3-(3-oxo-1-propyl-2,3-dihydro-1H-indazol-5-yl)-urea], which IC50 is on record?
A: ≥ 100 nM

Q: With `CCCn1[nH]c(=O)c2cc(NC(=O)Nc3ccccc3OC(F)(F)F)ccc21` [Example 4, 1-(3-Oxo-1-propyl-2,3-dihydro-1H-indazol-5-yl)-3-(2-trifluoromethoxy-phenyl)-urea] as the compound, how does the IC50 read?
A: ≥ 100 nM

Q: `CCCn1[nH]c(=O)c2cc(NC(=O)Nc3ccc(F)cc3F)ccc21` [Example 18, 1-(2,4-Difluoro-phenyl)-3-(3-oxo-1-propyl-2,3-dihydro-1H-indazol-5-yl)-urea] was tested. Which IC50 did it give?
A: ≥ 100 nM

Q: With `CCCn1[nH]c(=O)c2cc(NC(=O)Nc3cc(Cl)ccc3OC)ccc21` [Example 7, 1-(5-Chloro-2-methoxy-phenyl)-3-(3-oxo-1-propyl-2,3-dihydro-1H-indazol-5-yl)-urea] as the compound, how does the IC50 read?
A: < 100 nM

Q: `CCCn1[nH]c(=O)c2cc(NC(=O)Nc3ccccc3C(C)C)ccc21` [Example 8, 1-(2-Isopropyl-phenyl)-3-(3-oxo-1-propyl-2,3-dihydro-1H-indazol-5-yl)-urea] was tested. Which IC50 did it give?
A: ≥ 100 nM
